Measurements reported in ChEMBL document CHEMBL1201862, “PubChem BioAssay data set” (2004).
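In this assay, cells in 96-well plates receive the compound at five concentrations for 48 hours. Endpoints are linearly interpolated between the surrounding concentrations. GI50 is the concentration that inhibits growth by half.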 Calls of active or inactive are those of the source. Rule as the data show it: active = GI50 up to about 1.1 µM and inactive = higher.

Tests used:
Experiment in all cases: NCI anticancer screen, dose series, 48 h
IGROV-1 = system: IGROV-1
SK-MEL-28 = system: SK-MEL-28
OVCAR-3 = system: OVCAR-3
RPMI-8226 = system: RPMI-8226
HL-60 = system: HL-60
U-251 = system: U-251
UO-31 = system: UO-31
MOLT-4 = system: MOLT-4
SK-MEL-5 = system: SK-MEL-5
UACC-257 = system: UACC-257
OVCAR-5 = system: OVCAR-5
EKVX = system: EKVX
SF-539 = system: SF-539
MDA-MB-231 = system: MDA-MB-231
SR = system: SR
786-0 = system: 786-0
MCF7 = system: MCF7
MDA-MB-435 = system: MDA-MB-435
TK-10 = system: TK-10
HCT-15 = system: HCT-15

Row | Structure (SMILES) | GI50 (IGROV-1) | GI50 (SK-MEL-28) | GI50 (OVCAR-3) | GI50 (RPMI-8226) | GI50 (HL-60) | GI50 (U-251) | GI50 (UO-31) | GI50 (MOLT-4) | GI50 (SK-MEL-5) | GI50 (UACC-257) | GI50 (OVCAR-5) | GI50 (EKVX) | GI50 (SF-539) | GI50 (MDA-MB-231) | GI50 (SR) | GI50 (786-0) | GI50 (MCF7) | GI50 (MDA-MB-435) | GI50 (TK-10) | GI50 (HCT-15) [µM]
1 | CSc1nc2c(c(=O)[nH]1)N=C(c1ccccc1)CC(c1ccccc1)N2 (stereo not drawn) | 23.4 µM (inactive) | 50.6 µM (inactive) | 39 µM (inactive) | 28.5 µM (inactive) | 22.9 µM (inactive) | 34 µM (inactive) | 50.4 µM (inactive) | 18.9 µM (inactive) | 28.1 µM (inactive) | 56.5 µM (inactive) | 31.3 µM (inactive) | 32.1 µM (inactive) | 23.2 µM (inactive) | 18.5 µM (inactive) | 21.1 µM (inactive) | 38.5 µM (inactive) | 12.3 µM (inactive) | 40.7 µM (inactive) |  | 
2 | O=c1[nH]nc(Cc2ccccc2)n1O | > 100 µM (inactive) | > 100 µM (inactive) | > 100 µM (inactive) | > 100 µM (inactive) | > 100 µM (inactive) | > 100 µM (inactive) | > 100 µM (inactive) | > 100 µM (inactive) | > 100 µM (inactive) | > 100 µM (inactive) |  | > 100 µM (inactive) | > 100 µM (inactive) | > 100 µM (inactive) | > 100 µM (inactive) | > 100 µM (inactive) | > 100 µM (inactive) | > 100 µM (inactive) | > 100 µM (inactive) | 
3 | Cc1nn(C(=O)c2ccncc2)c2c1C(c1ccccc1O)SC(=N)N2 (stereo not drawn) | > 10 µM (inactive) | > 10 µM (inactive) | > 10 µM (inactive) | > 10 µM (inactive) | > 10 µM (inactive) | > 10 µM (inactive) |  | > 10 µM (inactive) | > 10 µM (inactive) | > 10 µM (inactive) | > 10 µM (inactive) | > 10 µM (inactive) | > 10 µM (inactive) | > 10 µM (inactive) | > 10 µM (inactive) | > 10 µM (inactive) | > 10 µM (inactive) | > 10 µM (inactive) | > 10 µM (inactive) | > 10
4 | O=C(Nc1ccc(Cl)cc1)c1cc(S(=O)(=O)Nc2n[nH]c(=O)[nH]2)c(SSc2cc(Cl)c(C(=O)Nc3ccc(Cl)cc3)cc2S(=O)(=O)Nc2n[nH]c(=O)[nH]2)cc1Cl | > 100 µM (inactive) | > 100 µM (inactive) | > 100 µM (inactive) | > 100 µM (inactive) | > 100 µM (inactive) | > 100 µM (inactive) | > 100 µM (inactive) | > 100 µM (inactive) | > 100 µM (inactive) | > 100 µM (inactive) | > 100 µM (inactive) | > 100 µM (inactive) |  | > 100 µM (inactive) | > 100 µM (inactive) | > 100 µM (inactive) | > 100 µM (inactive) | > 100 µM (inactive) | > 100 µM (inactive) | > 100
5 | CCSC1=N/C(=C/c2ccccc2O)C(=O)N1 | 87.3 µM (inactive) | > 100 µM (inactive) | > 100 µM (inactive) | > 100 µM (inactive) | > 100 µM (inactive) | 38.7 µM (inactive) | 38.5 µM (inactive) | > 100 µM (inactive) | > 100 µM (inactive) | > 100 µM (inactive) | > 100 µM (inactive) | > 100 µM (inactive) | 20.7 µM (inactive) | 90.6 µM (inactive) | 63 µM (inactive) | 28.5 µM (inactive) | > 100 µM (inactive) | > 100 µM (inactive) |  | > 100
6 | c1csc(-c2sc(-c3ccsc3)cc2Cc2ccsc2)c1 | > 10 µM (inactive) | > 10 µM (inactive) |  | > 10 µM (inactive) | > 10 µM (inactive) |  |  | > 10 µM (inactive) | > 10 µM (inactive) | > 10 µM (inactive) |  | > 10 µM (inactive) |  | > 10 µM (inactive) | > 10 µM (inactive) | > 10 µM (inactive) | > 10 µM (inactive) | > 10 µM (inactive) | > 10 µM (inactive) | > 10
7 | CC(=O)O[C@H]1[C@@H](OC2CCCC2(c2ccccc2)c2ccccc2)O[N+]([O-])=C[C@@H]1c1ccccc1 (stereo partly drawn) | 2.79 µM (inactive) | 2.55 µM (inactive) | 8.87 µM (inactive) | 2.01 µM (inactive) | 2.01 µM (inactive) | 7.83 µM (inactive) | 10.7 µM (inactive) | 2.63 µM (inactive) | 8.02 µM (inactive) | 9.25 µM (inactive) | 17.6 µM (inactive) | 13.4 µM (inactive) |  | 12.6 µM (inactive) | 2.4 µM (inactive) | 1.86 µM (inactive) | 3.48 µM (inactive) | 3.34 µM (inactive) | 9.71 µM (inactive) | 4.75
8 | COc1ccc(/C=N/N=C(\N)NO)c(OC)c1OC | 36.6 µM (inactive) | > 100 µM (inactive) | 16.4 µM (inactive) | 31.6 µM (inactive) | 23.1 µM (inactive) | 42.1 µM (inactive) | 20.8 µM (inactive) | 42.3 µM (inactive) | 24.6 µM (inactive) |  | 23.4 µM (inactive) | 16.6 µM (inactive) | 25.2 µM (inactive) | 65.2 µM (inactive) | 25 µM (inactive) | 18.5 µM (inactive) | 11.5 µM (inactive) | 57.7 µM (inactive) | 71.1 µM (inactive) | 35.2
9 | O=C(NN=C1CCN(Cc2ccccc2)CC1)C(O)(c1ccccc1)c1ccccc1 | > 100 µM (inactive) | > 100 µM (inactive) |  | > 100 µM (inactive) | > 100 µM (inactive) | > 100 µM (inactive) | > 100 µM (inactive) | > 100 µM (inactive) | > 100 µM (inactive) | > 100 µM (inactive) | > 100 µM (inactive) | > 100 µM (inactive) | > 100 µM (inactive) | > 100 µM (inactive) | > 100 µM (inactive) | > 100 µM (inactive) | > 100 µM (inactive) | > 100 µM (inactive) | > 100 µM (inactive) | > 100
10 | CC(=O)NC(Cc1ccc(OP(=O)(OCc2ccc([N+](=O)[O-])o2)N(C)CCCCCl)cc1)C(=O)NC(C)c1ccc(OCC2CCCCC2)c(C(N)=O)c1 (stereo not drawn) | 2.7 µM (inactive) | 2.12 µM (inactive) | 2.27 µM (inactive) | 1.72 µM (inactive) | 2.79 µM (inactive) | 2.48 µM (inactive) | 17.3 µM (inactive) | 3.53 µM (inactive) | 1.61 µM (inactive) | 1.93 µM (inactive) | 7.35 µM (inactive) |  | 2.08 µM (inactive) | 2.05 µM (inactive) | 2.21 µM (inactive) | 3.37 µM (inactive) | 2.25 µM (inactive) | 2.31 µM (inactive) | 11.4 µM (inactive) | 20.4
11 | CC(C)=CCC/C(C)=C/Cc1c2c(c3oc(-c4ccc(O)c(O)c4)c(O)c(=O)c3c1O)C=CC(C)(C)O2 | 2.11 µM (inactive) | 4.37 µM (inactive) | 1.32 µM (inactive) | 1.82 µM (inactive) | 1.68 µM (inactive) | 3.21 µM (inactive) | 3.44 µM (inactive) | 1.77 µM (inactive) | 2.95 µM (inactive) | 5.22 µM (inactive) | 7.18 µM (inactive) |  | 1.79 µM (inactive) | 5.74 µM (inactive) | 1.84 µM (inactive) | 1.85 µM (inactive) | 2.79 µM (inactive) | 5.33 µM (inactive) | 5.24 µM (inactive) | 2.1
12 | O=[N+]([O-])C(=C(NCc1ccccc1)NCc1ccccc1)C(Cl)=C(Cl)Cl | 34 µM (inactive) | 61.2 µM (inactive) | 21.6 µM (inactive) | 29.9 µM (inactive) | 20.2 µM (inactive) |  | 25.3 µM (inactive) | 23.1 µM (inactive) | 20.2 µM (inactive) | 38.1 µM (inactive) |  | 51.3 µM (inactive) | 43 µM (inactive) | 29.4 µM (inactive) | 23.8 µM (inactive) | 43.6 µM (inactive) | 41.1 µM (inactive) | 22.9 µM (inactive) | 35.9 µM (inactive) | 23.3
13 | CCCCCCCCCCCCCCCCOCC(Cl)CP(=O)(O)OP(=O)(O)OCC1OC(n2cnc3c(N)ncnc32)C(O)C1O (stereo not drawn) | > 100 µM (inactive) | > 100 µM (inactive) | > 100 µM (inactive) |  | > 100 µM (inactive) | 74 µM (inactive) | > 100 µM (inactive) | > 100 µM (inactive) | > 100 µM (inactive) | > 100 µM (inactive) | > 100 µM (inactive) | > 100 µM (inactive) | > 100 µM (inactive) | > 100 µM (inactive) | > 100 µM (inactive) | > 100 µM (inactive) | > 100 µM (inactive) | > 100 µM (inactive) | > 100 µM (inactive) | > 100
14 | COc1ccc(CC(C#N)c2cc(OC)c(OC)c(OC)c2)cc1 (stereo not drawn) | 0.0809 µM (active) | 0.0619 µM (active) | 0.0279 µM (active) | 0.0741 µM (active) | 0.0258 µM (active) | 0.0568 µM (active) | 0.442 µM (active) | 0.121 µM (active) | 0.0266 µM (active) | 0.0356 µM (active) | 6.27 µM (inactive) | 1.56 µM (inactive) | 0.0436 µM (active) | 0.0561 µM (active) | 0.0206 µM (active) | 0.125 µM (active) | < 0.016 µM (active) | < 0.01 µM (active) |  | 0.0276
15 | C=C1C(=O)O[C@@H]2/C=C(/C)[C@@H](OC(C)=O)C[C@@H](O)/C(C)=C\[C@@H](OC(=O)[C@]3(C)O[C@@H]3C)[C@@H]12 | 16.2 µM (inactive) | 10.9 µM (inactive) | 11.6 µM (inactive) | 5.78 µM (inactive) | 2.39 µM (inactive) | 17.5 µM (inactive) |  | 3.91 µM (inactive) | 11.4 µM (inactive) | 15.7 µM (inactive) | 18.6 µM (inactive) | 11 µM (inactive) | 21.2 µM (inactive) | 16.3 µM (inactive) | 4.6 µM (inactive) | 4.57 µM (inactive) | 5.79 µM (inactive) | 15.3 µM (inactive) | 15.6 µM (inactive) | 12.9
